Measurements taken from the supplement of paper PMC11821682.

Experiments:
Danio rerio embryo = assay: BMC10 any morphological effect or mortality at 120 hpf; higher = less toxic
Experimental: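 ZBEscreen: dechorionated Tropical 5D zebrafish embryos were exposed from 4 hpf in 96-well plates (1% DMSO, 28 °C). All compounds were first tested at 100 µM; hits were retested at 0.005-100 µM. Morphology and mortality were scored at 120 hpf and fitted as BMC10 (3-parameter log-logistic, extra risk). The embryonic photomotor response at 24 hpf and the larval photomotor response at 120 hpf are given as lowest effect levels (K-S test, p<0.01). NA = not significant up to 100 µM; NT = not tested.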

HL-60 = assay: Cell Health Index (toxicity pseudo-probability over dose series) (index 0-1); higher = more cytotoxic / cell stress;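 further: HL-60 cells exposed 4 h at 37 °C to ten threefold dilutions spanning 5 nM to 100 µM, multiparametric flow cytometry features scored by machine-learning classification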

What does the source list for COc1ccc(C[C@H]2COC(=O)[C@@H]2Cc2ccc(O[C@@H]3O[C@H](CO)[C@@H](O)[C@H](O)[C@H]3O)c(OC)c2)cc1OC [Arctiin]?
BMC10 any morphological effect or mortality (Danio rerio embryo): > 100 µM; Cell Health Index (HL-60): 0.192

C[C@H]1[C@H](C)CC[C@]2(C(=O)O)CC[C@]3(C)C(=CC[C@@H]4[C@@]5(C)C[C@@H](O)[C@H](O)[C@@](C)(CO)[C@@H]5CC[C@]43C)[C@H]12 [Asiatic acid] was tested. Which “BMC10 any morphological effect or mortality” value (Danio rerio embryo) did it give?
Its value is > 100 µM.

And the “Cell Health Index” value (HL-60)?
The value was 0.478.

CC(=O)Oc1ccccc1C(=O)O [Aspirin] was tested. Which “BMC10 any morphological effect or mortality” value (Danio rerio embryo) did it give?
The value was > 100 µM.

And the “Cell Health Index” value (HL-60)?
The value was 0.198.

Which “BMC10 any morphological effect or mortality” value (Danio rerio embryo) does the source give for CC(C)(O)[C@@H]1CC[C@](C)([C@H]2[C@@H](O)C[C@@]3(C)[C@@H]4C[C@H](O[C@@H]5O[C@H](CO)[C@@H](O)[C@H](O)[C@H]5O)[C@H]5C(C)(C)[C@@H](O[C@@H]6OC[C@@H](O)[C@H](O)[C@H]6O)CC[C@@]56C[C@@]46CC[C@]23C)O1 [Astragaloside IV] here?
Its value is > 100 µM.

What about the “Cell Health Index” value (HL-60) of the same compound?
The value was 0.16.

Which results are given for COC(=O)N[C@H](C(=O)N[C@@H](Cc1ccccc1)[C@@H](O)CN(Cc1ccc(-c2ccccn2)cc1)NC(=O)[C@@H](NC(=O)OC)C(C)(C)C)C(C)(C)C [Atazanavir]?
BMC10 any morphological effect or mortality (Danio rerio embryo): > 100 µM; Cell Health Index (HL-60): 0.374

Which “BMC10 any morphological effect or mortality” value (Danio rerio embryo) does the source give for OCC1=C[C@@H](O)[C@@H]2C=CO[C@@H](O[C@@H]3O[C@H](CO)[C@@H](O)[C@H](O)[C@H]3O)[C@H]12 [Aucubin] here?
Its value is > 100 µM.

What about the “Cell Health Index” value (HL-60) of the same compound?
Its value is 0.304.

What does the source list for O=C(O)[C@H]1O[C@@H](Oc2cc3oc(-c4ccccc4)cc(=O)c3c(O)c2O)[C@H](O)[C@@H](O)[C@@H]1O [Baicalin]?
BMC10 any morphological effect or mortality (Danio rerio embryo): > 100 µM; Cell Health Index (HL-60): 0.718

What does the source list for COc1c(O)cc2c(c1O)[C@@H]1O[C@H](CO)[C@@H](O)[C@H](O)[C@H]1OC2=O [Bergenin]?
BMC10 any morphological effect or mortality (Danio rerio embryo): > 100 µM; Cell Health Index (HL-60): 0.214

C=C(C)[C@@H]1CC[C@]2(C=O)CC[C@]3(C)[C@H](CC[C@@H]4[C@@]5(C)CC[C@H](O)C(C)(C)[C@@H]5CC[C@]43C)[C@@H]12 [Betulinic aldehyde] was tested. Which “BMC10 any morphological effect or mortality” value (Danio rerio embryo) did it give?
Its value is > 100 µM.

What about the “Cell Health Index” value (HL-60) of the same compound?
The value was 0.515.

How did the “BMC10 any morphological effect or mortality” value (Danio rerio embryo) turn out when O=C(NCc1c(F)cc(F)cc1F)c1cn2c(c(O)c1=O)C(=O)N1[C@H]3CC[C@H](C3)O[C@@H]1C2 [Bictegravir] was run?
The value was > 100 µM.

And the “Cell Health Index” value (HL-60)?
The value was 0.35.

With CC[C@H](NC(=O)[C@H](C)NC)C(=O)N1C[C@@H](O)C[C@H]1Cc1c(-c2[nH]c3cc(F)ccc3c2C[C@@H]2C[C@H](O)CN2C(=O)[C@H](CC)NC(=O)[C@H](C)NC)[nH]c2cc(F)ccc12 [Birinapant] as the compound, how does the “BMC10 any morphological effect or mortality” value (Danio rerio embryo) read?
Its value is > 100 µM.

And the “Cell Health Index” value (HL-60)?
Its value is 0.282.

With CC(C)(C)NC(=O)N[C@H](C(=O)N1C[C@H]2[C@@H]([C@H]1C(=O)NC(CC1CCC1)C(=O)C(N)=O)C2(C)C)C(C)(C)C (stereo partly drawn) [Boceprevir] as the compound, how does the “BMC10 any morphological effect or mortality” value (Danio rerio embryo) read?
Its value is > 100 µM.

And the “Cell Health Index” value (HL-60)?
The value was 0.228.

For O=c1[nH]c(=O)n([C@H]2C[C@H](O)[C@@H](CO)O2)cc1/C=C/Br [Brivudine], which “BMC10 any morphological effect or mortality” value (Danio rerio embryo) is on record?
The value was > 100 µM.

And the “Cell Health Index” value (HL-60)?
The value was 0.157.

Which “BMC10 any morphological effect or mortality” value (Danio rerio embryo) does the source give for CCCNC(=O)[C@H]1O[C@@H]1C(=O)N[C@H](C(=O)N1CCC[C@H]1C(=O)O)[C@@H](C)CC [CA-074] here?
The value was > 100 µM.

What about the “Cell Health Index” value (HL-60) of the same compound?
The value was 0.179.

With CN(C)C(=O)COC(=O)Cc1ccc(OC(=O)c2ccc(NC(=N)N)cc2)cc1.CS(=O)(=O)O [Camostat] as the compound, how does the “BMC10 any morphological effect or mortality” value (Danio rerio embryo) read?
Its value is > 100 µM.

And the “Cell Health Index” value (HL-60)?
The value was 0.162.

With CC(C)C[C@H](NC(=O)[C@H](CCc1ccccc1)NC(=O)CN1CCOCC1)C(=O)N[C@@H](Cc1ccccc1)C(=O)N[C@@H](CC(C)C)C(=O)[C@@]1(C)CO1 [Carfilzomib] as the compound, how does the “BMC10 any morphological effect or mortality” value (Danio rerio embryo) read?
Its value is > 100 µM.

What about the “Cell Health Index” value (HL-60) of the same compound?
The value was 0.42.

What does the source list for O=C(O)C[C@@H]1C(=O)O[C@H]2[C@@H]3OC(=O)c4cc(O)c(O)c(O)c4-c4c(cc(O)c(O)c4O)C(=O)OC[C@H]2O[C@@H](OC(=O)c2cc(O)c(O)c(O)c2)[C@@H]3OC(=O)c2cc(O)c(O)c3c2[C@H]1[C@H](O)C(=O)O3 [Chebulagic acid]?
BMC10 any morphological effect or mortality (Danio rerio embryo): > 100 µM; Cell Health Index (HL-60): 0.874

Which results are given for O=C(/C=C/c1ccc(O)c(O)c1)O[C@@H](C(=O)O)[C@@H](OC(=O)/C=C/c1ccc(O)c(O)c1)C(=O)O [Chicoric acid]?
BMC10 any morphological effect or mortality (Danio rerio embryo): > 100 µM; Cell Health Index (HL-60): 0.468

How did the “BMC10 any morphological effect or mortality” value (Danio rerio embryo) turn out when O=C(/C=C/c1ccc(O)c(O)c1)O[C@@H]1C[C@](O)(C(=O)O)C[C@@H](O)[C@H]1O [Chlorogenic acid] was run?
Its value is > 100 µM.

What about the “Cell Health Index” value (HL-60) of the same compound?
The value was 0.232.

What does the source list for CCN(CC)CCCC(C)Nc1ccnc2cc(Cl)ccc12.O=P(O)(O)O.O=P(O)(O)O (stereo not drawn) [Chloroquine]?
BMC10 any morphological effect or mortality (Danio rerio embryo): > 100 µM; Cell Health Index (HL-60): 0.236

With Cc1cc(O)c2c(c1)C(=O)c1cccc(O)c1C2=O [Chrysophanol] as the compound, how does the “BMC10 any morphological effect or mortality” value (Danio rerio embryo) read?
The value was > 100 µM.

What about the “Cell Health Index” value (HL-60) of the same compound?
Its value is 0.288.

For CC(C)C[C@H](NC(=O)[C@@H](NC(=O)N[C@@H](Cc1ccccc1)C(=O)O)C1CCNC(=N)N1)C(=O)N[C@H](C=O)Cc1ccccc1 (stereo partly drawn) [Chymostatin], which “BMC10 any morphological effect or mortality” value (Danio rerio embryo) is on record?
The value was > 100 µM.

And the “Cell Health Index” value (HL-60)?
The value was 0.19.

For Nc1ccn(C[C@@H](CO)OCP(=O)(O)O)c(=O)n1 [Cidofovir], which “BMC10 any morphological effect or mortality” value (Danio rerio embryo) is on record?
The value was > 100 µM.

And the “Cell Health Index” value (HL-60)?
The value was 0.144.

Which results are given for [Cl-].c1c2c(cc3c1OCO3)-c1cc3ccc4c(c3c[n+]1CC2)OCO4 [Coptisine]?
BMC10 any morphological effect or mortality (Danio rerio embryo): > 100 µM; Cell Health Index (HL-60): 0.777

How did the “BMC10 any morphological effect or mortality” value (Danio rerio embryo) turn out when O=C(OC1OC2COC(=O)c3cc(O)c(O)c(O)c3-c3c(cc(O)c(O)c3O)C(=O)OC(C2O)C1O)c1cc(O)c(O)c(O)c1 (stereo not drawn) [Corilagin] was run?
The value was > 100 µM.

What about the “Cell Health Index” value (HL-60) of the same compound?
Its value is 0.889.

Which results are given for Nc1ccn([C@@H]2O[C@H](CO)[C@@H](O)[C@@H]2O)c(=O)n1 [Cytarabine]?
BMC10 any morphological effect or mortality (Danio rerio embryo): > 100 µM; Cell Health Index (HL-60): 0.203

How did the “BMC10 any morphological effect or mortality” value (Danio rerio embryo) turn out when CO[C@H]1[C@H](O)[C@@H](O)[C@@H](O)[C@H](O)[C@@H]1O [D-Pinitol] was run?
The value was > 100 µM.

And the “Cell Health Index” value (HL-60)?
Its value is 0.174.

With CCCCCCOC(=O)NC(=N)c1ccc(NCc2nc3cc(C(=O)N(CCC(=O)OCC)c4ccccn4)ccc3n2C)cc1 [Dabigatran etexilate] as the compound, how does the “BMC10 any morphological effect or mortality” value (Danio rerio embryo) read?
Its value is > 100 µM.

What about the “Cell Health Index” value (HL-60) of the same compound?
The value was 0.832.

Which “BMC10 any morphological effect or mortality” value (Danio rerio embryo) does the source give for Cn1c(CNc2ccc(C(=N)N)cc2)nc2cc(C(=O)N(CCC(=O)O)c3ccccn3)ccc21 [Dabigatran] here?
Its value is > 100 µM.

And the “Cell Health Index” value (HL-60)?
Its value is 0.137.
